From patent US12686676B2, “Compound, endothelin-A receptor antagonist, and pharmaceutical composition” (Alchemedicine, Inc., priority 2021, dated 2026)
pIC50: −log10 of the molar value.

Key:
[1] = Metabolic stability in mouse liver microsome; assay type: in vitro ADME; conditions: after 30 minutes with NADPH; also: tested at 0.99 µM
Description: 971.5 μL of the potassium phosphate buffer solution and 27.5 μL of the human liver microsome were placed in a propylene tube and suspended. 1 μL of the test compound was added thereto, and a 180 μL aliquot of this mixture was transferred to a fresh tube. The mixture was preincubated at 37° C. for 5 minutes. Then, 20 μL of the NADPH solution (for an incubation time of 30 minutes) or 20 μL of the potassium phosphate buffer solution (for an incubation time of 0 minutes) was added thereto. After incubation, the reaction was terminated by the addition of 200 μL of the quenching solution. Subsequently, the tube was centrifuged at 3220×g for 20 minutes, and the concentration of an unchanged form of the test compound in […] of a supernatant was measured by LC-MS/MS. On the basis of the obtained peak area of the unchanged form, the residual rate (%) of the unchanged form was calculated using the rate of 0 minutes of incubation time as 100%.
The metabolic stability in a mouse liver microsome was evaluated by the same method as above except that the mouse liver microsome was used instead of the human liver microsome.

CYP2C9 = biological target: T1, CYP2C9 (Homo sapiens, UniProt P11712); test: CYP2C9 inhibitory effect (liver microsome fraction, diclofenac substrate); assay type: in vitro ADME; conditions: liver microsome fraction 0.5 mg/mL, diclofenac 2.5 μM
T1 construct: A frozen liver microsome fraction was thawed on ice; from tissue; host or cells: liver microsome fraction
Description: The inhibitory effect on CYP2C9 was evaluated by the following method. • (1) A frozen liver microsome fraction was thawed on ice and diluted with a potassium phosphate buffer (PPB) to a final concentration of 0.5 mg/mL. • (2) A substrate for evaluation (diclofenac: D6899 from Sigma-Aldrich Co. LLC) was added thereto such that its final concentration was 2.5 μM. • (3) The mixture was slowly mixed and incubated at 37±1° C. for 5 minutes to prepare a reaction solution. • (4) 801 μL of the reaction solution was dispensed to each tube, and an evaluation compound serially diluted with 0.9 μL of DMSO was added thereto such that its final concentration was 9.1 to 20000 nM (⅓ dilutions with 8 concentrations). In this context, 0.9 μL of DMSO was added to a negative control group, and 0.9 μL of sulfaphenazole (S0758 from Sigma-Aldrich Co. LLC) adjusted to a final concentration of 1 μM with DMSO was added to a positive control group. • (5) After mixing, a 270 μL aliquot was transferred to each of two fresh tubes and incubated in a shaking water bath at 37±1° C. for 5 minutes. • (6) Reaction was started by the addition of 30 μL of 10 mM NADPH, and the tubes were incubated at 37° C.±1° C. for 10 minutes. • (7) The tubes were taken out of the shaking water bath, and the reaction was terminated by the addition of 300 μL of a reaction stop solution. After mixing, the tubes were centrifuged at 1021×g at 4° C. for 20 minutes. • (8) The amount of the substrate for evaluation metabolized was determined by LC-MS/MS to calculate the rate of inhibition at each concentration of the evaluation compound. • (9) IC50 values were calculated using GraphPad Prism5. A sample having an IC50 value of 1 μM or lower was given “++”; a sample having an IC50 value in the range of higher than 1 μM and 10 μM or lower was given “+”; and a sample having an IC50 value of higher than 10 μM was given “−”.

[2] = biological target: T2, human endothelin B receptor (Homo sapiens, UniProt P24530); test: Endothelin B receptor inhibitory effect (aequorin light emission, endothelin at EC80); assay type: cell-based; conditions: for pIC50: CHO-K1-mt aequorin cells expressing human endothelin B receptor, endothelin at EC80, read-out: ETB receptor inhibitory effect
T2 construct: expressed in transfected cells; host or cells: CHO-K1-mt aequorin cells
T2 sequence (P24530 27-442): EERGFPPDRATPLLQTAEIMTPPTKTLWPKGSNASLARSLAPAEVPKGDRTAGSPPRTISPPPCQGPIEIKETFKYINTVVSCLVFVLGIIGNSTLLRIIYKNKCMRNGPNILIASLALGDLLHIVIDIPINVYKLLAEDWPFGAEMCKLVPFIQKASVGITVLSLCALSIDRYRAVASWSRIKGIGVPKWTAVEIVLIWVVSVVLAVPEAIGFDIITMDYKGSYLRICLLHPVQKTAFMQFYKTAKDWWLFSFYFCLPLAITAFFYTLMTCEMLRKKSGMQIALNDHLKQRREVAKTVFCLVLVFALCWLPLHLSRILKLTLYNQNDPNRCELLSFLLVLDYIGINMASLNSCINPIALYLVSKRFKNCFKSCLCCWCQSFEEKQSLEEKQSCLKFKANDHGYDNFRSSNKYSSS
Description: The inhibitory effect on an endothelin B receptor was studied by the following method.
CHO-K1-mt aequorin cells forced to express a human endothelin B receptor (Accession Number NP_000106.1) were cultured in an antibiotic-free medium for 18 hours, then treated with PBS-EDTA (5 mM EDTA), centrifuged (2 min, 405×g, room temperature), and then suspended in an assay buffer (DMEM/HAM's F12 with HEPES+0.1% BSA protease free).
1×10^6 cells/mL of the cells were incubated at room temperature for 4 hours in the presence of coelenterazine h (Molecular Probes, Inc.) (final concentration: 5 µM). Agonistic reaction based on endothelin was confirmed to determine an endothelin concentration corresponding to EC80.
Subsequently, 50 µL (10000 cells/well) of the cell suspension treated with coelenterazine h and 50 µL of an assay buffer containing a test substance (final concentration: 0.5% in DMSO) were added to each well of a 96-well plate. 15 minutes later, endothelin was added such that its final concentration was an EC80 concentration. Receptor activity was measured as the quantity of light emission in FDSS6000 (Hamamatsu Photonics K.K.).

T1 sequence (P11712 whole entry): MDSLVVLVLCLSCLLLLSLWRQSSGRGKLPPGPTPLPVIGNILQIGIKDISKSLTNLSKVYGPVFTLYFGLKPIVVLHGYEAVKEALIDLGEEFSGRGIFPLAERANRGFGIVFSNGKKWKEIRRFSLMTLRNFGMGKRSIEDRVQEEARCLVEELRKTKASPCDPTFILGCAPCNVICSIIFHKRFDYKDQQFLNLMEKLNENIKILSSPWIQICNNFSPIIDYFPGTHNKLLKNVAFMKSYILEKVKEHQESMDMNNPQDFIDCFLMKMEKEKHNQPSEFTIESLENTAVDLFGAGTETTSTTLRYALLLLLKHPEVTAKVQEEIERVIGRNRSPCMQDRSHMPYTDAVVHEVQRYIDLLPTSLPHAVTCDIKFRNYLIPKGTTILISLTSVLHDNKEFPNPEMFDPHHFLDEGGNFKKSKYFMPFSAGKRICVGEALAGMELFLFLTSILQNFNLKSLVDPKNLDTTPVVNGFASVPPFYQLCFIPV

Compound	Metabolic stability (mouse), residual rate of the unchanged form [1] [%]	pIC50 (CYP2C9)	pIC50 [2]	inhibition at 5 µM ([2]; at 5000 nM, read-out: ETB receptor inhibitory effect, % inhibition) [%]
Cc1cc2c(cc1C#Cc1ncccc1S(=O)(=O)Nc1onc(C)c1Cl)C(C)(C)OC2 [Example 9, N-(4-Chloro-3-methylisoxazol-5-yl)-2-((3,3,6-trimethyl-1,3-dihydroisobenzofuran-5-yl)ethynyl)pyridine-3-sulfonamide]	5	5.00 to 6.00	< 5.30	
Cc1cc2c(cc1C#Cc1ncccc1S(=O)(=O)Nc1noc(C)c1Cl)C(C)(C)OC2 [Example 7, N-(4-Chloro-5-methylisoxazol-3-yl)-2-((3,3,6-trimethyl-1,3-dihydroisobenzofuran-5-yl)ethynyl)pyridine-3-sulfonamide]	81	5.00 to 6.00		57
Cc1cc2c(cc1C#Cc1ncccc1S(=O)(=O)Nc1onc(C)c1C)C(C)(C)OC2 [Example 8, N-(3,4-Dimethylisoxazol-5-yl)-2-((3,3,6-trimethyl-1,3-dihydroisobenzofuran-5-yl)ethynyl)pyridine-3-sulfonamide]	40	< 5.00	< 5.30	
COc1nc(C)cnc1NS(=O)(=O)c1cccnc1C#Cc1cc2c(cc1C)COC2(C)C [Example 10, N-(3-Methoxy-5-methylpyrazin-2-yl)-2-((3,3,6-trimethyl-1,3-dihydroisobenzofuran-5-yl)ethynyl)pyridine-3-sulfonamide]	68	< 5.00	< 5.30	

Second part, the compound after the results:

Metabolic stability (mouse), residual rate of the unchanged form [1] [%]	pIC50 (CYP2C9)	pIC50 [2]	inhibition at 5 µM ([2]; at 5000 nM, read-out: ETB receptor inhibitory effect, % inhibition) [%]	Compound
85	< 5.00	< 5.30		Cc1cc2c(cc1C#Cc1ncccc1S(=O)(=O)Nc1noc(C)c1C)COC2 [Example 3, N-(4,5-Dimethylisoxazol-3-yl)-2-((6-methyl-1,3-dihydroisobenzofuran-5-yl)ethynyl)pyridine-3-sulfonamide]
91	< 5.00	< 5.30		Cc1cc2c(cc1C#Cc1ncccc1S(=O)(=O)Nc1noc(C)c1C)C(=O)OC2 [Example 4, N-(4,5-Dimethylisoxazol-3-yl)-2-((6-methyl-3-oxo-1,3-dihydroisobenzofuran-5-yl)ethynyl)pyridine-3-sulfonamide]
90	< 5.00	< 5.30		Cc1onc(NS(=O)(=O)c2cccnc2C#Cc2ccc3c(c2)COC3)c1C [Example 5, 2-((1,3-Dihydroisobenzofuran-5-yl)ethynyl)-N-(4,5-dimethylisoxazol-3-yl)pyridine-3-sulfonamide]
85	< 5.00	< 5.30		Cc1cc2c(cc1C#Cc1ncccc1S(=O)(=O)Nc1noc(C)c1C)C(C)(C)OC2 [Example 1, N-(4,5-Dimethylisoxazol-3-yl)-2-((3,3,6-trimethyl-1,3-dihydroisobenzofuran-5-yl)ethynyl)pyridine-3-sulfonamide]
54	5.00 to 6.00	< 5.30		Cc1onc(NS(=O)(=O)c2cccnc2C#Cc2cc3c(cc2Cl)COC3)c1C [Example 6, 2-((6-Chloro-1,3-dihydroisobenzofuran-5-yl)ethynyl)-N-(4,5-dimethylisoxazol-3-yl)pyridine-3-sulfonamide]
